Publication PMC9959048, “Lipidation of Naturally Occurring α-Helical Antimicrobial Peptides as a Promising Strategy for Drug Design” (International Journal of Molecular Sciences, 2023)
Values after ≈ are worked out from the molar mass of the structure shown. Residues, ends and D or L forms follow the SMILES beside them. *: point of attachment. Octanoyl = CCCCCCCC(=O)*

What was measured:
C. krusei CCM8271 = assay type: cell-based, Candida krusei; conditions: CCM8271, 24 h
In short: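 Broth microdilution MICs per CLSI guidelines: bacteria in Mueller–Hinton broth, 24 h at 37 °C; yeasts in MOPS-buffered RPMI-1640 with 2% glucose, 24 h at 35 °C. Growth read by absorbance at 600 nm, % inhibition versus compound-free inoculated wells; triplicate.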

[1] = system: human breast cancer cells (MCF-7 line, ATCC); experiment: MTT cytotoxicity assay; assay type: cell-based; conditions: IC50 against HaCaT divided by IC50 for MCF-7
Experimental: (§1) The prepared plates were further incubated for 48 h. […] The control cell viability was assumed to be 100%. Three independent experiments were carried out in three repetitions.

[2] = system: human prostate cancer cells (PC3 line, ATCC); experiment: MTT cytotoxicity assay; assay type: cell-based; conditions: IC50 against HaCaT divided by IC50 for PC3
Experimental: as §1

POPC liposomes = experiment: CD, α-helix content in POPC liposomes; assay type: physicochemical; conditions: 25 °C, peptide 0.15 mg/mL, 1.3 mM POPC
Experimental: (§2) Large unilamellar vesicles (LUV) were obtained by extrusion of MLV liposomes through polycarbonate membrane filters with a pore diameter of 100 nm (Whatman International Ltd., Kent, UK) using a mini-extruder (Avanti Polar Lipids, Inc., Alabaster, AL, USA).
(§3) CD experiments were carried out at 25 °C using a Jasco J-815 spectropolarimeter in the wavelength range 185–260 nm. The concentration of the lipopeptides was 0.15 mg/mL. The CD spectra were recorded in water, PBS (pH 7.4), 1.3 mM POPC and 1.3 mM POPG. The results are plotted as the mean molar ellipticity per one amino acid residue (MRME, deg cm^2 dmol^−1) as a function of the wavelength (nm). Additionally, we performed a conformational analysis of the selected compounds in the presence of S. aureus cells. […] The mixtures were then incubated for 2 h before recording the CD spectra.
(§4) The percentage of the α-helical structure was calculated based on the mean molar ellipticity at 222 nm using the formula: fH=θ222−3000/−36000−3000·100% where θ222 corresponds to the value of the mean molar ellipticity at a wavelength of 222 nm.

POPG liposomes = experiment: CD, α-helix content in POPG liposomes; assay type: physicochemical; conditions: 25 °C, peptide 0.15 mg/mL, 1.3 mM POPG, from ellipticity at 222 nm
Experimental: as §2, §3, §4

CCCCCCCC(=O)N[C@H](C(=O)N[C@@H](CCCCN)C(=O)N[C@@H](CCCCN)C(=O)N[C@H](C(=O)N[C@@H](CC(C)C)C(=O)N[C@@H](CO)C(=O)N[C@@H](CCCCN)C(=O)N[C@H](C(=O)N[C@@H](CCCCN)C(=O)N[C@@H](CCCCN)C(=O)N[C@@H](CC(C)C)C(=O)N[C@@H](CC(C)C)C(=O)N[C@@H](CCCCN)C(N)=O)[C@@H](C)CC)[C@@H](C)CC)[C@@H](C)CC [C8-LK6] (Octanoyl-IKKILSKIKKLLK-NH2) was tested, and the “MIC, C. krusei CCM8271” value (C. krusei CCM8271) was 6.25 µg/mL (≈ 3.72 µM), the “SI MCF-7” value [1] was 3.44 and the “SI PC3” value [2] was 1.50. For the same molecule, the “θ222/θ208, POPC” value (POPC liposomes) was 0.82, the “α-Helix percentage, POPC” value (POPC liposomes; from ellipticity at 222 nm) was 46% and the “α-Helix percentage, POPG” value (POPG liposomes) was 24%.
